Measured values from patent publication US10278942B2 (PELOTON THERAPEUTICS, INC., priority 2015, dated 2019).

Experiments:
[1] = target: T1, HIF-2α HIS TAG-PASB Domain (Homo sapiens, UniProt Q99814); assay: HIF-2α Scintillation Proximity Assay (SPA); format: binding; details: read-out: Scintillation Proximity Assay IC50
T1 construct: 100 nM HIF-2α HIS TAG-PASB Domain
Method in brief: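 IC50 values rest on percent inhibition, where the sample signal is scaled between high and low controls. Wells contain about 100 μL: compound dispensed as 2 μL of DMSO solution, 88 μL protein-probe mix and 10 μL of beads.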

[2] = system: 786-O-Hif-Luc cells; assay: Luciferase Assay (HIF responsive elements reporter); details: read-out: Mean Luciferase EC50 (nM), 786-O-Hif-Luc cells
Experimental: A pool of infected cells were then selected against 2 μg/mL of puromycin (P8833, Sigma) for 10 days followed by limited dilution to select single clones. […] Each concentration was tested in triplicate. After about 24 hours, luciferase activity was determined using ONE-Glo Luciferase Assay Reagent (E6110, Promega) following the manufacturer's recommended procedure. EC50 were calculated using Dotmatics software.

T1 sequence (Q99814 240-350 limits assumed): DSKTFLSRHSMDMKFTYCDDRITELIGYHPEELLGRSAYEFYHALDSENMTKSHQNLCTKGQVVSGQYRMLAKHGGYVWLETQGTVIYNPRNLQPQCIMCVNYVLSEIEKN

Structure (SMILES)	IC50 [1]	EC50 [2]
CC(Oc1ccc(S(C)(=O)=O)c2c1[C@@H](F)C(F)(F)[C@H]2O)C(F)F (stereo partly drawn) [Compound 774]	< 50 nM	250 to 1000 nM
O=S(=O)(c1ccc(OC2CCCCC2)c2c1C(O)CC2)C(F)(F)F (stereo not drawn) [Compound 616]	50 to 249 nM	250 to 1000 nM
O=S(=O)(c1ccc(Oc2ccc(F)c(Cl)c2)c2c1[C@H](O)CC2)C(F)F [Compound 157]	250 to 1000 nM	> 1000 nM
CS(=O)(=O)c1ccc(Oc2cc(F)cc(C#N)c2)c2c1[C@H](O)C(F)(F)[C@@H]2O [Compound 312]	50 to 249 nM	250 to 1000 nM
CC(C)(C#N)COc1ccc(S(C)(=O)=O)c2c1[C@@H](F)C(F)(F)[C@H]2O [Compound 752]	> 1000 nM	> 1000 nM
CC1(C)C[C@H](O)C[C@@H](c2ccc(S(=O)(=O)C(F)(F)F)c3c2CC(F)(F)[C@H]3O)C1 [Compound 549]	< 50 nM	50 to 249 nM
N#CN=S1(=O)c2ccc(Oc3cc(F)cc(F)c3)c(Cl)c2[C@@H](O)C1(F)F (stereo partly drawn) [Compound 412]	50 to 249 nM	> 1000 nM
O=S(=O)(c1ccc(OCC2CCC2)c2c1[C@H](O)C(F)(F)C2)C(F)(F)F [Compound 716]	< 50 nM	< 50 nM
O=S(=O)(c1ccc([C@H]2CCC[C@@H](O)C2)c2c1[C@H](O)C(F)(F)C2)C(F)(F)F [Compound 483]	< 50 nM	250 to 1000 nM
CS(=O)(=O)c1ccc(Oc2cc(F)cc(Cl)c2)c(C(F)F)c1C#N [Compound 92]	< 50 nM	250 to 1000 nM
O=S1(=O)c2ccc(Oc3ccc(F)c(F)c3)c(C(F)F)c2[C@@H](O)C1(F)F [Compound 436]	< 50 nM	50 to 249 nM
CS(=O)(=O)c1ccc(Oc2cc(F)cc(C#N)c2)c(C(F)F)c1C#N [Compound 94]	50 to 249 nM	250 to 1000 nM
O[C@H]1c2c(C(F)(F)F)ccc(OCCCF)c2[C@@H](F)C1(F)F [Compound 582]	< 50 nM	< 50 nM
N#CC1(COc2ccc(S(=O)(=O)C(F)(F)F)c3c2CC(F)(F)[C@H]3O)CCC1 [Compound 790]	< 50 nM	< 50 nM
O=S(=O)(c1ccc(Oc2ccc(F)c(Cl)c2)c2c1[C@H](O)C(F)(F)C2)C(F)(F)F [Compound 221]	< 50 nM	< 50 nM
O=S(=O)(c1ccc(Oc2cc(Cl)c[n+]([O-])c2)c2c1[C@H](O)C(F)(F)C2)C(F)(F)F [Compound 260]	50 to 249 nM	50 to 249 nM
O=S(=O)(c1ccc(OCc2ccccc2)c2c1C(O)C(F)(F)C2)C(F)(F)F (stereo not drawn) [Compound 663]	50 to 249 nM	250 to 1000 nM
O=S(=O)(c1ccc(Oc2cc(F)cc(Cl)c2)c2c1[C@H](O)CC2)C(F)(F)F [Compound 56]	< 50 nM	50 to 249 nM
N#CN=S1(=O)CC(O)c2c1ccc(Oc1cc(F)cc(F)c1)c2C(F)F (stereo not drawn) [Compound 394]	> 1000 nM	> 1000 nM
CS(=O)(=O)c1ccc(O[C@H]2C[C@@H](O)C2)c2c1[C@H](O)C(F)(F)[C@@H]2F [Compound 735]	250 to 1000 nM	> 1000 nM
C[C@@]1(F)Cc2c(Oc3cc(F)cc(C#N)c3)ccc(S(C)(=O)=O)c2[C@@H]1O [Compound 300]	> 1000 nM	> 1000 nM
C#CCOc1ccc(S(=O)(=O)C(F)(F)F)c2c1CC(F)(F)[C@H]2O [Compound 711]	250 to 1000 nM	250 to 1000 nM
N#Cc1cccc(Oc2ccc(S(=O)(=O)C(F)(F)F)cc2Br)c1 [Compound 117]	50 to 249 nM	> 1000 nM

Structure (SMILES)	IC50 [1]	EC50 [2]
N#Cc1c(S(=O)(=O)C(F)F)ccc(Oc2cc(F)cc(Cl)c2)c1Cl [Compound 38]	50 to 249 nM	250 to 1000 nM
O=S(=O)(c1ccc(Oc2ccc(F)cc2)c2c1C(O)CC2)C(F)(F)F (stereo not drawn) [Compound 212]	250 to 1000 nM	> 1000 nM
N#Cc1cc(F)cc(Oc2ccc3c(c2F)C(O)C(F)(F)S3(=O)=O)c1 (stereo not drawn) [Compound 434]	250 to 1000 nM	250 to 1000 nM
CS(=O)(=O)c1ccc(Oc2cc(F)cc(F)c2)c(C(F)F)c1C#N [Compound 93]	50 to 249 nM	250 to 1000 nM
O=S(=O)(c1ccc(Oc2cc(Cl)cc(Cl)c2)c(Br)c1)C(F)(F)F [Compound 172]	250 to 1000 nM	> 1000 nM
O=S(=O)(c1ccc([C@@H]2CCC[C@H](O)C2)c2c1[C@H](O)C(F)(F)C2)C(F)(F)F [Compound 482, (S)-2,2-difluoro-4-((1R,3S)-3-hydroxycyclohexyl)-7-((trifluoromethyl)sulfonyl)-2,3-dihydro-1H-inden-1-ol]	250 to 1000 nM	250 to 1000 nM
O/N=C1/c2c(C(F)(F)F)ccc(OCC(F)F)c2CC1(F)F [Compound 580]	250 to 1000 nM	> 1000 nM
N#Cc1cc(F)cc(-c2ccc(S(=O)(=O)C(F)(F)F)c3c2CC(F)(F)[C@H]3O)c1 [Compound 486, (S)-3-(2,2-difluoro-1-hydroxy-7((trifluoromethyl)sulfonyl)-2,3-dihydro-1H-inden-4-yl)-5-fluorobenzonitrile]	< 50 nM	50 to 249 nM
O=Cc1c(S(=O)(=O)C(F)(F)F)ccc(Oc2cc(F)cc(Cl)c2)c1Cl [Compound 112]	< 50 nM	250 to 1000 nM
C[C@]1(C#N)C[C@H](Oc2ccc(S(=O)(=O)C(F)(F)F)c3c2CC(F)(F)[C@H]3O)C1 [Compound 788]	50 to 249 nM	250 to 1000 nM
N#Cc1cncc(Oc2ccc(S(=O)(=O)C(F)F)c3c2CC(F)(F)[C@H]3O)c1 [Compound 27]	250 to 1000 nM	50 to 249 nM
CS(=O)(=O)c1ccc(Oc2cccc(C#N)c2)c2c1[C@H](O)C(F)(F)C2 [Compound 162]	50 to 249 nM	50 to 249 nM
CS(=O)(=O)c1ccc(O[C@H]2C[C@](F)(C#N)C2)c2c1[C@H](O)C(F)(F)[C@@H]2F [Compound 741]	< 50 nM	> 1000 nM
CS(=O)(=O)c1ccc(Oc2cc(F)cc(Cl)c2)c2c1C(O)CC2 (stereo not drawn) [Compound 90]	50 to 249 nM	250 to 1000 nM
CS(=O)(=O)c1ccc(OC[C@@H]2CC2(F)F)c2c1[C@H](O)C(F)(F)[C@@H]2F [Compound 768]	50 to 249 nM	250 to 1000 nM
O=S(=O)(c1ccc(-c2ccc(Cl)cc2)c2c1[C@H](O)C(F)(F)C2)C(F)(F)F [Compound 563]	50 to 249 nM	250 to 1000 nM
CS(=O)(=O)c1ccc(OC2CC(F)(F)C2)c2c1[C@H](O)[C@H](F)C2 [Compound 585]	< 50 nM	250 to 1000 nM
CS(=O)(=O)c1ccc(OC[C@H]2C[C@H]2C#N)c2c1[C@H](O)C(F)(F)[C@@H]2F [Compound 765]	250 to 1000 nM	> 1000 nM
N#Cc1cncc(Nc2ccc(S(=O)(=O)C(F)(F)F)c3c2CC(F)(F)[C@H]3O)c1 [Compound 488, (S)-5-((2,2-difluoro-1-hydroxy-7-((trifluoromethyl)sulfonyl)-2,3-dihydro-1H-inden-4-yl)amino)nicotinonitrile]	50 to 249 nM	50 to 249 nM
CS(=O)(=O)c1ccc(Oc2cncc(Cl)c2)c2c1[C@H](O)C(F)(F)C2 [Compound 115]	250 to 1000 nM	250 to 1000 nM
COc1cc(F)cc(Oc2ccc3c(c2Br)[C@@H](O)C(F)(F)S3(=O)=O)c1 [Compound 426]	50 to 249 nM	250 to 1000 nM
C[C@]1(C#N)C[C@@H](Oc2ccc(S(=O)(=O)C(F)(F)F)c3c2C[C@@H](F)[C@H]3O)C1 [Compound 794]	< 50 nM	< 50 nM
